Laboratory results reported in ChEMBL document CHEMBL1201862, “PubChem BioAssay data set” (2004).
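Tested at 5 concentrations; 48 h exposure; 96-well plates; endpoints linearly interpolated, else capped at highest concentration. GI50 = concentration required for 50% inhibition of growth.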 Calls of active or inactive are those of the source. Cut-off read from the data, not from the text of the source: active = GI50 up to about 1.1 µM and inactive = higher.

What was measured:
Assay in all cases: inhibition of tumour cell growth, NCI panel, 48 h
[1] = system: RXF 393
[2] = system: HCC 2998
[3] = system: NCI-H460
[4] = system: IGROV-1
[5] = system: SK-MEL-5
[6] = system: SR
[7] = system: CAKI-1
[8] = system: RPMI-8226
[9] = system: MCF7
[10] = system: Hs-578T
[11] = system: MDA-N
[12] = system: SNB-75
[13] = system: SF-539
[14] = system: HCT-116
[15] = system: MDA-MB-231
[16] = system: SK-MEL-28
[17] = system: K562
[18] = system: HT-29
[19] = system: UO-31
[20] = system: BT-549

| Compound | GI50 [1] | GI50 [2] | GI50 [3] | GI50 [4] | GI50 [5] | GI50 [6] | GI50 [7] | GI50 [8] | GI50 [9] | GI50 [10] | GI50 [11] | GI50 [12] | GI50 [13] | GI50 [14] | GI50 [15] | GI50 [16] | GI50 [17] | GI50 [18] | GI50 [19] | GI50 [20] |
| --- | --- | --- | --- | --- | --- | --- | --- | --- | --- | --- | --- | --- | --- | --- | --- | --- | --- | --- | --- | --- |
| CN(C)CCCNC(=O)CCNC(=O)c1cc(NC(=O)c2cc(NC(=O)c3cc(NC(=O)c4nc(NC(=O)CCCNC(=O)c5cc(NC(=O)c6cc(NC(=O)c7cc(NC(=O)c8nccn8C)cn7C)cn6C)cn5C)cn4C)cn3C)cn2C)cn1C | > 100 µM (inactive) | > 100 µM (inactive) | > 100 µM (inactive) | > 100 µM (inactive) | > 100 µM (inactive) | > 100 µM (inactive) | > 100 µM (inactive) | > 100 µM (inactive) | > 100 µM (inactive) | > 100 µM (inactive) | > 100 µM (inactive) | > 100 µM (inactive) | > 100 µM (inactive) | > 100 µM (inactive) | > 100 µM (inactive) | > 100 µM (inactive) | > 100 µM (inactive) | > 100 µM (inactive) | > 100 µM (inactive) | – |
| O=C1c2ccccc2CC12Cc1cc3c(cc1C2=O)CCC3 (stereo not drawn) | > 100 µM (inactive) | > 100 µM (inactive) | > 100 µM (inactive) | > 100 µM (inactive) | > 100 µM (inactive) | > 100 µM (inactive) | > 100 µM (inactive) | 43.6 µM (inactive) | > 100 µM (inactive) | > 100 µM (inactive) | > 100 µM (inactive) | > 100 µM (inactive) | > 100 µM (inactive) | > 100 µM (inactive) | > 100 µM (inactive) | > 100 µM (inactive) | > 100 µM (inactive) | > 100 µM (inactive) | > 100 µM (inactive) | – |
| O=C(O)CCNc1ncc2c(n1)-c1ccccc1OC2 | > 100 µM (inactive) | – | > 100 µM (inactive) | 36.2 µM (inactive) | > 100 µM (inactive) | > 100 µM (inactive) | > 100 µM (inactive) | > 100 µM (inactive) | > 100 µM (inactive) | 61 µM (inactive) | > 100 µM (inactive) | 28.8 µM (inactive) | > 100 µM (inactive) | > 100 µM (inactive) | > 100 µM (inactive) | > 100 µM (inactive) | > 100 µM (inactive) | > 100 µM (inactive) | > 100 µM (inactive) | – |
| O=C(CC(C(=O)c1cccs1)c1cccs1)c1ccsc1 (stereo not drawn) | – | 57.4 µM (inactive) | 42.4 µM (inactive) | > 100 µM (inactive) | 39.6 µM (inactive) | 37.2 µM (inactive) | > 100 µM (inactive) | 36.1 µM (inactive) | 32.8 µM (inactive) | > 100 µM (inactive) | 19.4 µM (inactive) | 40.2 µM (inactive) | 67 µM (inactive) | 36.6 µM (inactive) | 38 µM (inactive) | 47.5 µM (inactive) | 46 µM (inactive) | 57.9 µM (inactive) | 43.5 µM (inactive) | – |
| COc1ccc(-c2c3c(n(C4OC(COC(C)=O)C(OC(C)=O)C(OC(C)=O)C4OC(C)=O)c(=S)c2C#N)CCCC3)cc1 (stereo not drawn) | 33.7 µM (inactive) | > 100 µM (inactive) | 39.8 µM (inactive) | 28.8 µM (inactive) | 34.4 µM (inactive) | > 100 µM (inactive) | 20.5 µM (inactive) | – | > 100 µM (inactive) | – | 91.4 µM (inactive) | 16.4 µM (inactive) | 69.5 µM (inactive) | 79.4 µM (inactive) | 55.8 µM (inactive) | 61.9 µM (inactive) | 65.6 µM (inactive) | > 100 µM (inactive) | 64.7 µM (inactive) | – |
| CC(C)[Si](OC12CCC(CC1O)CC2C(=O)O)(C(C)C)C(C)C (stereo not drawn) | – | – | 7.76 µM (inactive) | – | 18.9 µM (inactive) | 23.2 µM (inactive) | 19.1 µM (inactive) | 10.1 µM (inactive) | 11.3 µM (inactive) | – | 17 µM (inactive) | 6.1 µM (inactive) | 27.4 µM (inactive) | 10.7 µM (inactive) | 14.7 µM (inactive) | 11.2 µM (inactive) | 31.6 µM (inactive) | 11.7 µM (inactive) | 13.2 µM (inactive) | – |
| COc1ccc(NC(=S)C#N)cc1 | > 100 µM (inactive) | > 100 µM (inactive) | – | – | > 100 µM (inactive) | > 100 µM (inactive) | > 100 µM (inactive) | 38.7 µM (inactive) | > 100 µM (inactive) | – | > 100 µM (inactive) | > 100 µM (inactive) | > 100 µM (inactive) | > 100 µM (inactive) | > 100 µM (inactive) | > 100 µM (inactive) | 49.3 µM (inactive) | > 100 µM (inactive) | – | > 100 µM (inactive) |
| O=C(CCl)N1CCN(c2ccccc2)CC1 | 19.1 µM (inactive) | 17.6 µM (inactive) | 18.8 µM (inactive) | 24.1 µM (inactive) | 16.3 µM (inactive) | 26.7 µM (inactive) | 15.8 µM (inactive) | 24.9 µM (inactive) | 19.5 µM (inactive) | 32.8 µM (inactive) | 22.6 µM (inactive) | 16.7 µM (inactive) | – | 18.3 µM (inactive) | – | 18.3 µM (inactive) | 36.4 µM (inactive) | 23.6 µM (inactive) | 17.9 µM (inactive) | – |
| Cc1cc(=O)oc2c(CNC(CC(C)C)C(=O)O)c(O)ccc12 (stereo not drawn) | > 100 µM (inactive) | > 100 µM (inactive) | > 100 µM (inactive) | > 100 µM (inactive) | > 100 µM (inactive) | > 100 µM (inactive) | > 100 µM (inactive) | > 100 µM (inactive) | > 100 µM (inactive) | > 100 µM (inactive) | > 100 µM (inactive) | 39.7 µM (inactive) | > 100 µM (inactive) | > 100 µM (inactive) | > 100 µM (inactive) | > 100 µM (inactive) | > 100 µM (inactive) | > 100 µM (inactive) | > 100 µM (inactive) | – |
| O=C1CSC(c2c[nH]c3ccccc23)N1c1cccc([N+](=O)[O-])c1 (stereo not drawn) | > 100 µM (inactive) | > 100 µM (inactive) | 28.8 µM (inactive) | > 100 µM (inactive) | 84.3 µM (inactive) | > 100 µM (inactive) | – | > 100 µM (inactive) | 90.8 µM (inactive) | – | 34.8 µM (inactive) | 43.7 µM (inactive) | 82 µM (inactive) | 73.1 µM (inactive) | 56.2 µM (inactive) | > 100 µM (inactive) | 76.2 µM (inactive) | > 100 µM (inactive) | 42.7 µM (inactive) | > 100 µM (inactive) |
| CCN1C(c2ccccc2)=CC(c2ccccc2)(C(Cl)(Cl)Cl)C=C1c1ccccc1 | 17.5 µM (inactive) | 3.04 µM (inactive) | 7.5 µM (inactive) | 4.7 µM (inactive) | 1.7 µM (inactive) | > 10 µM (inactive) | 30.8 µM (inactive) | 2.22 µM (inactive) | 5.92 µM (inactive) | 25.7 µM (inactive) | 4.94 µM (inactive) | 5.06 µM (inactive) | 15.6 µM (inactive) | 4.66 µM (inactive) | 3.4 µM (inactive) | 3.92 µM (inactive) | 2.52 µM (inactive) | 3.48 µM (inactive) | 34.6 µM (inactive) | – |
| O=C(O)CSc1nnc(COc2ccc(Cl)cc2)n1-c1ccccc1 | > 100 µM (inactive) | > 100 µM (inactive) | > 100 µM (inactive) | > 100 µM (inactive) | – | – | > 100 µM (inactive) | – | > 100 µM (inactive) | – | > 100 µM (inactive) | > 100 µM (inactive) | – | > 100 µM (inactive) | > 100 µM (inactive) | > 100 µM (inactive) | > 100 µM (inactive) | > 100 µM (inactive) | > 100 µM (inactive) | – |
| COC(=O)[C@]1(c2cc3ccccc3n2S(=O)(=O)c2ccccc2)CC2CCC1NC2 (stereo partly drawn) | 12.2 µM (inactive) | 9.38 µM (inactive) | 14 µM (inactive) | 14 µM (inactive) | 13 µM (inactive) | < 0.01 µM (active) | 15.5 µM (inactive) | 6.65 µM (inactive) | 13.2 µM (inactive) | – | 14.7 µM (inactive) | 12.7 µM (inactive) | 16.4 µM (inactive) | 13.7 µM (inactive) | 14.1 µM (inactive) | 16.8 µM (inactive) | 10.4 µM (inactive) | 12.4 µM (inactive) | 10.5 µM (inactive) | 14.5 µM (inactive) |
| OCC1NC(COC2OC(CO)C(O)C(O)C2O)C(O)C(O)C1O (stereo not drawn) | > 100 µM (inactive) | > 100 µM (inactive) | > 100 µM (inactive) | > 100 µM (inactive) | > 100 µM (inactive) | > 100 µM (inactive) | > 100 µM (inactive) | > 100 µM (inactive) | > 100 µM (inactive) | – | > 100 µM (inactive) | > 100 µM (inactive) | > 100 µM (inactive) | > 100 µM (inactive) | > 100 µM (inactive) | > 100 µM (inactive) | > 100 µM (inactive) | > 100 µM (inactive) | > 100 µM (inactive) | > 100 µM (inactive) |
| CO/C(N)=C(C#N)/N=C/c1cccnc1 | > 100 µM (inactive) | > 100 µM (inactive) | – | > 100 µM (inactive) | > 100 µM (inactive) | – | 71.9 µM (inactive) | > 100 µM (inactive) | > 100 µM (inactive) | – | > 100 µM (inactive) | > 100 µM (inactive) | > 100 µM (inactive) | > 100 µM (inactive) | > 100 µM (inactive) | > 100 µM (inactive) | > 100 µM (inactive) | > 100 µM (inactive) | – | > 100 µM (inactive) |
